In US11076594B2, “Pyrazolone compound or salt thereof, preparation method therefor, herbicide composition and use thereof” (QINGDAO KINGAGROOT CHEMICAL COMPOUNDS CO., LTD., priority 2015, dated 2021):

Experiments:
Type in all cases: in vivo
Indian mallow = assay: weed control effect in post-emergence stage (Table 1); design: key: Level 10: completely dead; Level 9: above 95% growth control rate; Level 8: above 90% growth control rate; Level 7: above 80% growth control rate; Level 6: above 70% growth control rate; Level 5: above 60% growth control rate; Level 4: above 50% growth control rate; Level 3: above 20% growth control rate; Level 2: 5%-20% growth control rate; Level 1: below 5% growth control rate; details: post-emergence spray at 4-5 leaf stage, 250 g/ha active ingredient with 450 kg/ha water, rated after 3 weeks in greenhouse
In short: (§1)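 Greenhouse pot test; foliar spray at 4-5 leaf stage; acetone + Tween 80 + water formulation; 3 wk post-treatment fresh-weight control rate.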

foxtail = assay: as above; design: key: Level 10: completely dead; Level 9: above 95% growth control rate; Level 8: above 90% growth control rate; Level 7: above 80% growth control rate; Level 6: above 70% growth control rate; Level 5: above 60% growth control rate; Level 4: above 50% growth control rate; Level 3: above 20% growth control rate; Level 2: 5%-20% growth control rate; Level 1: below 5% growth control rate; details: post-emergence spray at 4-5 leaf stage, 250 g/ha active ingredient with 450 kg/ha water, rated after 3 weeks in greenhouse
In short: as §1

rorippa indica = assay: as above; design: key: Level 10: completely dead; Level 9: above 95% growth control rate; Level 8: above 90% growth control rate; Level 7: above 80% growth control rate; Level 6: above 70% growth control rate; Level 5: above 60% growth control rate; Level 4: above 50% growth control rate; Level 3: above 20% growth control rate; Level 2: 5%-20% growth control rate; Level 1: below 5% growth control rate; details: post-emergence spray at 4-5 leaf stage, 250 g/ha active ingredient with 450 kg/ha water, rated after 3 weeks in greenhouse
In short: as §1

bidens bipinnata = assay: as above; design: key: Level 10: completely dead; Level 9: above 95% growth control rate; Level 8: above 90% growth control rate; Level 7: above 80% growth control rate; Level 6: above 70% growth control rate; Level 5: above 60% growth control rate; Level 4: above 50% growth control rate; Level 3: above 20% growth control rate; Level 2: 5%-20% growth control rate; Level 1: below 5% growth control rate; details: post-emergence spray at 4-5 leaf stage, 250 g/ha active ingredient with 450 kg/ha water, rated after 3 weeks in greenhouse
In short: as §1

echinochloa = assay: as above; design: key: Level 10: completely dead; Level 9: above 95% growth control rate; Level 8: above 90% growth control rate; Level 7: above 80% growth control rate; Level 6: above 70% growth control rate; Level 5: above 60% growth control rate; Level 4: above 50% growth control rate; Level 3: above 20% growth control rate; Level 2: 5%-20% growth control rate; Level 1: below 5% growth control rate; details: post-emergence spray at 4-5 leaf stage, 250 g/ha active ingredient with 450 kg/ha water, rated after 3 weeks in greenhouse
In short: as §1

crab grass = assay: as above; design: key: Level 10: completely dead; Level 9: above 95% growth control rate; Level 8: above 90% growth control rate; Level 7: above 80% growth control rate; Level 6: above 70% growth control rate; Level 5: above 60% growth control rate; Level 4: above 50% growth control rate; Level 3: above 20% growth control rate; Level 2: 5%-20% growth control rate; Level 1: below 5% growth control rate; details: post-emergence spray at 4-5 leaf stage, 250 g/ha active ingredient with 450 kg/ha water, rated after 3 weeks in greenhouse
In short: as §1

rice = assay: post-emergence stage experiment, crop (Table 1); design: key: Level 10: completely dead; Level 9: above 95% growth control rate; Level 8: above 90% growth control rate; Level 7: above 80% growth control rate; Level 6: above 70% growth control rate; Level 5: above 60% growth control rate; Level 4: above 50% growth control rate; Level 3: above 20% growth control rate; Level 2: 5%-20% growth control rate; Level 1: below 5% growth control rate; details: post-emergence spray at 4-5 leaf stage, 250 g/ha active ingredient with 450 kg/ha water, rated after 3 weeks in greenhouse
In short: as §1

wheat [1] = assay: post-emergence stage experiment, crop (Table 1); details: post-emergence spray at 4-5 leaf stage, 250 g/ha active ingredient with 450 kg/ha water, rated after 3 weeks in greenhouse
In short: as §1

corn = assay: post-emergence stage experiment, crop (Table 1); details: post-emergence spray at 4-5 leaf stage, 250 g/ha active ingredient with 450 kg/ha water, rated after 3 weeks in greenhouse
In short: as §1

wheat [2] = assay: wheat field test, crop selectivity, greenhouse spray at 4 leaf stage; details: 250 g/ha of the active substance; 4 weeks after treatment
In short: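 Potted plants grown in greenhouse were sprayed at the 4 leaf stage, 2–3 weeks post-sowing, with compound in acetone plus methyl oleate emulsion diluted in water. After 4 weeks of further greenhouse culture, growth control was scored as fresh weight control rate.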

flixweed = assay: wheat field resistant broadleaf weed control, greenhouse spray at 4 leaf stage; design: key: Level 10: completely dead; Level 9: above 95% growth control rate; Level 8: above 90% growth control rate; Level 7: above 80% growth control rate; Level 6: above 70% growth control rate; Level 5: above 60% growth control rate; Level 4: above 50% growth control rate; Level 3: above 20% growth control rate; Level 2: 5%-20% growth control rate; Level 1: below 5% growth control rate; details: 250 g/ha of the active substance; 4 weeks after treatment; ALS inhibitor resistant
In short: (§2)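 Greenhouse post-emergence test. Weeds were treated at the 4 leaf stage, 2-3 weeks after sowing, and cultured for 4 weeks before fresh weight control rate was determined.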

chickweed = assay: as above; design: key: Level 10: completely dead; Level 9: above 95% growth control rate; Level 8: above 90% growth control rate; Level 7: above 80% growth control rate; Level 6: above 70% growth control rate; Level 5: above 60% growth control rate; Level 4: above 50% growth control rate; Level 3: above 20% growth control rate; Level 2: 5%-20% growth control rate; Level 1: below 5% growth control rate; details: 250 g/ha of the active substance; 4 weeks after treatment; ALS inhibitor resistant
In short: as §2

corn gromwell = assay: as above; design: key: Level 10: completely dead; Level 9: above 95% growth control rate; Level 8: above 90% growth control rate; Level 7: above 80% growth control rate; Level 6: above 70% growth control rate; Level 5: above 60% growth control rate; Level 4: above 50% growth control rate; Level 3: above 20% growth control rate; Level 2: 5%-20% growth control rate; Level 1: below 5% growth control rate; details: 250 g/ha of the active substance; 4 weeks after treatment; ALS inhibitor resistant
In short: as §2

shepherd's purse = assay: as above; design: key: Level 10: completely dead; Level 9: above 95% growth control rate; Level 8: above 90% growth control rate; Level 7: above 80% growth control rate; Level 6: above 70% growth control rate; Level 5: above 60% growth control rate; Level 4: above 50% growth control rate; Level 3: above 20% growth control rate; Level 2: 5%-20% growth control rate; Level 1: below 5% growth control rate; details: 250 g/ha of the active substance; 4 weeks after treatment; ALS inhibitor resistant
In short: as §2

SMILES	weed control effect, Indian mallow (level) (Indian mallow)	weed control effect, Green foxtail (level) (foxtail)	weed control effect, Rorippa indica (level) (rorippa indica)	weed control effect, Bidens bipinnata (level) (bidens bipinnata)	weed control effect, Echinochloa (level) (echinochloa)	weed control effect, Crab grass (level) (crab grass)	effect on crop, Rice (level) (rice)	effect on crop, Wheat (level) (wheat [1])	effect on crop, Corn (level) (corn)	Wheat (activity level, crop damage) (wheat [2])	flixweed weed controlling effect (activity level) (flixweed)	chickweed weed controlling effect (activity level) (chickweed)	corn gromwell weed controlling effect (activity level) (corn gromwell)	shepherd's purse weed controlling effect (activity level) (shepherd's purse)
CCn1nc(C)c(C(=O)c2ccc(C(F)(F)F)c(N3CCCCCC3=O)c2Cl)c1OC(=O)c1cn(C)nc1C [Compound 119]	3 (Level 3: above 20% growth control rate)	9 (Level 9: above 95% growth control rate)	10	5 (Level 5: above 60% growth control rate)	10	5 (Level 5: above 60% growth control rate)	6 (Level 6: above 70% growth control rate)	1 (Level 1: below 5% growth control rate)	3 (Level 3: above 20% growth control rate)	1 (Level 1: below 5% growth control rate)	10	10	10	10
CCc1nn(C)c(O)c1C(=O)c1ccc(C(F)(F)F)c(N2CCCCCC2=O)c1Cl [Compound 120]	4 (Level 4: above 50% growth control rate)	7 (Level 7: above 80% growth control rate)	10	4 (Level 4: above 50% growth control rate)	10	1 (Level 1: below 5% growth control rate)	5 (Level 5: above 60% growth control rate)	1 (Level 1: below 5% growth control rate)	1 (Level 1: below 5% growth control rate)	1 (Level 1: below 5% growth control rate)	10	10	10	10
CCc1nn(C)c(OC(=O)c2cn(C)nc2C)c1C(=O)c1ccc(C(F)(F)F)c(N2CCCCCC2=O)c1Cl [Compound 121]	5 (Level 5: above 60% growth control rate)	9 (Level 9: above 95% growth control rate)	10	3 (Level 3: above 20% growth control rate)	10	4 (Level 4: above 50% growth control rate)	6 (Level 6: above 70% growth control rate)	1 (Level 1: below 5% growth control rate)	1 (Level 1: below 5% growth control rate)	1 (Level 1: below 5% growth control rate)	10	10	10	10
CCc1nn(C)c(OC(=O)c2cn(C)nc2C)c1C(=O)c1ccc(C(F)(F)F)c(-n2cccn2)c1Cl [Compound 131]	10	10	10	10	10	3 (Level 3: above 20% growth control rate)	10	0	4 (Level 4: above 50% growth control rate)	0	10	10	10	10
